13 molecules from ChEMBL document CHEMBL1141223, “Potent Dmt-Tic pharmacophoric delta- and mu-opioid receptor antagonists” (J Med Chem, 2005) can be followed below.

Assay [1] addresses T1, Mu-type opioid receptor (Cavia porcellus, UniProt P97266). As to the kind of experiment: Displacement of endomorphin-2 from mu opioid receptor in guinea pig ileum. It counts as tissue-based, Hartley. The note with it: read-out: pA2 (converted).
For assay [2], the target named is Mu-type opioid receptor (Cavia porcellus) (UniProt P97266). The assay is described as follows: Maximal inhibition of muscle contraction in guinea pig ileum at 10000 nM. It counts as functional, tissue-based. Set-up: scale not given: the % may be the effect or the level left.
Assay [3] concerns the target Delta-type opioid receptor (Rattus norvegicus, UniProt P33533). The assay is described as follows: Displacement of [3H]deltorphin-II from delta opioid receptor in rat brain synaptosomal membranes. It counts as cell membranes, Sprague-Dawley, Membrane. (Loss of bound radioactivity is the signal in a displacement assay; it reports binding, not function.)
For assay [4], the target named is Mu-type opioid receptor (Rattus norvegicus, UniProt P33535). As to the kind of experiment: Displacement of [3H]DAMGO from mu opioid receptor expressed in rat brain synaptosomal membranes. It is filed as cell membranes, Sprague-Dawley, Membrane.
The target of assay [5] is Opioid receptors; mu & delta (Rattus norvegicus) (UniProt P33533+P33535). The assay is described as follows: Selectivity ratio of rat mu opioid receptor over rat delta opioid receptor. It counts as protein assay.
Assay [6] addresses T2, Delta-type opioid receptor (Mus musculus, UniProt P32300). The assay is described as follows: Agonistic activity at delta opioid receptor in mouse vas deferens. It is filed as functional, tissue-based.
For assay [7], the target named is T2, Delta-type opioid receptor. As to the kind of experiment: Displacement of deltorphin-II from delta opioid receptor in mouse vas deferens. The note with it: read-out: pA2 (converted).
In assay [8] the target is Delta-type opioid receptor (Mus musculus) (UniProt P32300). As to the kind of experiment: Maximal inhibition of muscle contraction in mouse vas deferens at 10000 nM. It is filed as functional, tissue-based. Set-up: scale not given: the % may be the effect or the level left. The note with it: Muscle tissue.
The target in assay [9] is T1, Mu-type opioid receptor. The assay is described as follows: Agonistic activity at mu opioid receptor in myenteric plexus longitudinal muscle of guinea pig ileum. It is filed as functional, tissue-based, Hartley.

Sequence of Opioid receptors; mu & delta (Rattus norvegicus) (P33533 whole entry, looked up): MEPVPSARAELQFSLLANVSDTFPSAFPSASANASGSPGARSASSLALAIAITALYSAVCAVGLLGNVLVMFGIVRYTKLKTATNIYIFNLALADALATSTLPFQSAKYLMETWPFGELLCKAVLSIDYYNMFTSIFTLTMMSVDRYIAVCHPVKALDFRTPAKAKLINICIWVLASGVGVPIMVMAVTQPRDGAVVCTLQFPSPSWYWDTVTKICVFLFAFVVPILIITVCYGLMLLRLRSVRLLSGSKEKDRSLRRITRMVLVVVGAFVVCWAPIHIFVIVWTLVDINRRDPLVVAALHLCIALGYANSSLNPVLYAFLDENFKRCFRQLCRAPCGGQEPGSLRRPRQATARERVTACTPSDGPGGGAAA
Sequence of Opioid receptors; mu & delta (Rattus norvegicus) (P33535 whole entry, looked up): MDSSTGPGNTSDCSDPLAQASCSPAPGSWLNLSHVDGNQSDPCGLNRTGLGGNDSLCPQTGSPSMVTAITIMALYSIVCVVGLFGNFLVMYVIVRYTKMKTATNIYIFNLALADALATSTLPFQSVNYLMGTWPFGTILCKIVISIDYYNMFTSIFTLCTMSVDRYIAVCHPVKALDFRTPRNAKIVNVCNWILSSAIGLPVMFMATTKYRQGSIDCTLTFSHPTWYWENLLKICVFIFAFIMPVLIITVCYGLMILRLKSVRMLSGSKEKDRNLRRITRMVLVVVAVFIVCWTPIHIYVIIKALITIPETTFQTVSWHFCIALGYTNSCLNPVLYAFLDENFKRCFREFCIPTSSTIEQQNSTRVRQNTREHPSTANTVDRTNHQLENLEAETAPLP
Sequence of Delta-type opioid receptor (Rattus norvegicus, UniProt P33533) (P33533 whole entry): as the sequence (P33533 whole entry, looked up) above
Sequence of Mu-type opioid receptor (Rattus norvegicus, UniProt P33535) (P33535 whole entry): as the sequence (P33535 whole entry, looked up) above
T1 sequence (P97266 whole entry): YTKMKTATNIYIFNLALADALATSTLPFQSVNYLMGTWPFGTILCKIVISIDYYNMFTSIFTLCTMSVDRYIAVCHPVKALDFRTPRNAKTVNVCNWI
Sequence of Mu-type opioid receptor (Cavia porcellus) (P97266 whole entry): as above
Sequence of Delta-type opioid receptor (Mus musculus) (P32300 whole entry): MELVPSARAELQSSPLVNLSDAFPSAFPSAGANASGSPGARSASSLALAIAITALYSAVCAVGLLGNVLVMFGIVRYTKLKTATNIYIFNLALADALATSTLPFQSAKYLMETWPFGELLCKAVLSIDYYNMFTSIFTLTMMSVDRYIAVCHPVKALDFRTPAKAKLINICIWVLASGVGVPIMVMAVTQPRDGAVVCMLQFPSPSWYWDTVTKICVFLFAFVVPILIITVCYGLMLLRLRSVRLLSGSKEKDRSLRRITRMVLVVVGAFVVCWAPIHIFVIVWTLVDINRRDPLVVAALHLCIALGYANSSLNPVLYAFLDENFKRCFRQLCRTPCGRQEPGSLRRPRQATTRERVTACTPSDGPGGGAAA
T2 sequence (P32300 whole entry): as above

For the molecule `Cc1cc(O)cc(C)c1C[C@H](N)C(=O)N1Cc2ccccc2CC1C(=O)NCCCCNC(=O)C1Cc2ccccc2CN1C(=O)[C@@H](N)Cc1c(C)cc(O)cc1C` (stereo partly specified), the Kb is 102 nM on Mu-type opioid receptor [1] and 0.0309 nM in assay [7]. Further, the Activity in assay [2] was less than 16%; in assay [8] it was less than 1%. Also, the Ki (as a rule, the equilibrium dissociation constant of an inhibitor or competing ligand from its target) in [3] was 0.124 nM; at Mu-type opioid receptor [4], 5.72 nM. For the same molecule, the Ratio Ki in assay [5] was found to be 46. Also, the IC50 (in [6]; on Mu-type opioid receptor [9]) was greater than 10000 nM each time.
As to `Cc1cc(O)cc(C)c1C[C@H](N)C(=O)N1Cc2ccccc2CC1C(=O)NCCCCc1[nH]c(=O)c(CCCNC(=O)C2Cc3ccccc3CN2C(=O)[C@@H](N)Cc2c(C)cc(O)cc2C)nc1C` (stereo partly specified), the Ki in [3] was 0.16 nM; at Mu-type opioid receptor [4] it was 1.56 nM. In addition, the IC50 (in assay [6]; on Mu-type opioid receptor [9]) was greater than 10000 nM each time. In addition, the Kb in assay [7] was 0.0251 nM.
For `Cc1cc(O)cc(C)c1C[C@H](N)C(=O)N1Cc2ccccc2CC1C(=O)NCCCCCCNC(=O)C1Cc2ccccc2CN1C(=O)[C@@H](N)Cc1c(C)cc(O)cc1C` (stereo partly specified), the figures for the Ki (in [3]; at Mu-type opioid receptor [4]) were 0.129 nM and 1.79 nM, respectively. The IC50 (usually the concentration needed to halve the response being measured) in assay [6] was greater than 10000 nM. The Kb in assay [7] is 0.024 nM. This molecule gave an Activity in assay [8] of less than 1%.
In the case of `Cc1cc(O)cc(C)c1C[C@H](N)C(=O)N1Cc2ccccc2CC1C(=O)NCCCCc1nc(O)c(CCNC(=O)C2Cc3ccccc3CN2C(=O)[C@@H](N)Cc2c(C)cc(O)cc2C)nc1C` (stereo partly specified), the Activity in [2] was less than 44%; in assay [8] it was less than 1%. The results for the Ki (in assay [3]; on Mu-type opioid receptor [4]) were 0.107 nM and 1.37 nM, respectively. For the same molecule, in [5], the Ratio Ki came out at 13. Besides, the IC50 (in assay [6]; at Mu-type opioid receptor [9]) was greater than 10000 nM in each case. For the same molecule, in assay [7], the Kb was 0.0102 nM.
Turning to `Cc1cc(O)cc(C)c1C[C@H](N)C(=O)N1Cc2ccccc2CC1C(=O)NCc1nc(O)c(CNC(=O)C2Cc3ccccc3CN2C(=O)[C@@H](N)Cc2c(C)cc(O)cc2C)nc1C` (stereo partly specified), the Activity in assay [2] was less than 15%; in assay [8] it was less than 1%. In addition, the Ki was found to be 0.163 nM in assay [3] and 3.76 nM on Mu-type opioid receptor [4]. Further, in [5], the Ratio Ki was found to be 23. Besides, the IC50 (in [6]; at Mu-type opioid receptor [9]) was greater than 10000 nM throughout. Moreover, the Kb in assay [7] is 0.00603 nM.
For the molecule `Cc1cc(O)cc(C)c1C[C@H](N)C(=O)N1Cc2ccccc2CC1C(=O)NCCCCc1nc(C)c(CCCNC(=O)C2Cc3ccccc3CN2C(=O)[C@@H](N)Cc2c(C)cc(O)cc2C)nc1O` (stereo partly specified), the Kb on Mu-type opioid receptor [1] is 112 nM; in assay [7] it was 0.0339 nM. Also, the Activity in assay [2] was less than 9%; in [8], 22%. Moreover, the Ki in assay [3] was 0.092 nM; at Mu-type opioid receptor [4], 2.28 nM. In addition, the Ratio Ki in [5] was 25. Besides, the IC50 (in assay [6]; at Mu-type opioid receptor [9]) was greater than 10000 nM each time.
Consider `Cc1cc(O)cc(C)c1C[C@H](N)C(=O)N1Cc2ccccc2CC1C(=O)NCCCCCCCCCCNC(=O)C1Cc2ccccc2CN1C(=O)[C@@H](N)Cc1c(C)cc(O)cc1C` (stereo partly specified), for which the Ki in [3] came out at 1.53 nM; at Mu-type opioid receptor [4], 4.86 nM. The Ratio Ki in [5] amounted to 3. The results for the IC50 (in assay [6]; at Mu-type opioid receptor [9]) were greater than 10000 nM and 5420 nM, respectively. For the same molecule, in assay [7], the Kb is 0.0107 nM. For the same molecule, the Activity in [8] was less than 28%.
Turning to `Cc1cc(O)cc(C)c1C[C@@H](C(=O)N1Cc2ccccc2CC1C(=O)NCCCc1nc(O)c(CCCNC(=O)C2Cc3ccccc3CN2C(=O)[C@H](Cc2c(C)cc(O)cc2C)N(C)C)nc1C)N(C)C` (stereo partly specified), the results for the Kb (on Mu-type opioid receptor [1]; in [7]) were 19.5 nM and 0.038 nM, respectively. Further, the Activity in assay [2] and in [8] was less than 1% throughout. The Ki in assay [3] was found to be 0.287 nM; at Mu-type opioid receptor [4] it was 1.68 nM. In addition, the Ratio Ki in assay [5] was determined as 6. The IC50 (in [6]; on Mu-type opioid receptor [9]) was greater than 10000 nM in each case.
In the case of `Cc1cc(O)cc(C)c1C[C@H](N)C(=O)N1Cc2ccccc2CC1C(=O)NCCCCc1nc(O)c(CCCNC(=O)C2Cc3ccccc3CN2C(=O)[C@@H](N)Cc2c(C)cc(O)cc2C)nc1C` (stereo partly specified), the Activity in [2] was less than 1%; in assay [8], less than 10%. Besides, the Ratio Ki in [5] is 10.
On to `Cc1cc(O)cc(C)c1C[C@H](N)C(=O)N1Cc2ccccc2CC1C(=O)NCCc1nc(O)c(CCNC(=O)C2Cc3ccccc3CN2C(=O)[C@@H](N)Cc2c(C)cc(O)cc2C)nc1C` (stereo partly specified), for which the results for the Kb (on Mu-type opioid receptor [1]; in assay [7]) were 166 nM and 0.0186 nM, respectively. In addition, the values for the Activity in [2] and in [8] were less than 27% and less than 1%, respectively. Besides, the Ki in [3] came out at 0.095 nM; on Mu-type opioid receptor [4], 2.83 nM. The Ratio Ki in assay [5] turned out to be 30. The IC50 (in assay [6]; at Mu-type opioid receptor [9]) was greater than 10000 nM in each case.
With `Cc1cc(O)cc(C)c1C[C@H](N)C(=O)N1Cc2ccccc2CC1C(=O)NCCCc1nc(O)c(CCCNC(=O)C2Cc3ccccc3CN2C(=O)[C@@H](N)Cc2c(C)cc(O)cc2C)nc1C` (stereo partly specified), the Ki in assay [3] was determined as 0.155 nM; on Mu-type opioid receptor [4], 3.08 nM. Besides, the Ratio Ki in assay [5] is 20. The half-maximal inhibitory concentration (IC50) in assay [6] was greater than 10000 nM; at Mu-type opioid receptor [9], 7020 nM. The Kb in assay [7] was 0.0275 nM. In assay [8], this molecule registered an Activity of less than 1%.
Take `Cc1cc(O)cc(C)c1C[C@H](N)C(=O)N1Cc2ccccc2CC1C(=O)NCCCCc1nc(O)c(CCCCNC(=O)C2Cc3ccccc3CN2C(=O)[C@@H](N)Cc2c(C)cc(O)cc2C)nc1C` (stereo partly specified): the Activity was less than 34% in assay [2] and less than 1% in assay [8]. Further, the Ki in assay [3] came out at 0.323 nM; at Mu-type opioid receptor [4], 1.74 nM. Also, in assay [5], the Ratio Ki came out at 5. Further, the IC50 (in assay [6]; at Mu-type opioid receptor [9]) was greater than 10000 nM throughout. In addition, the Kb in assay [7] is 0.00871 nM.
On to `Cc1cc(O)cc(C)c1C[C@@H](C(=O)N1Cc2ccccc2CC1C(=O)NCCCCCCNC(=O)C1Cc2ccccc2CN1C(=O)[C@H](Cc1c(C)cc(O)cc1C)N(C)C)N(C)C` (stereo partly specified), for which the Kb on Mu-type opioid receptor [1] is 4.57 nM; in assay [7] it was 0.00525 nM. Moreover, the Activity in [2] and in assay [8] was less than 1% in each case. Moreover, the results for the Ki (in [3]; at Mu-type opioid receptor [4]) were 0.06 nM and 2.21 nM, respectively. Moreover, the Ratio Ki in [5] was 37. The IC50 (in [6]; on Mu-type opioid receptor [9]) was greater than 10000 nM throughout.
